A melting point compilation (Tetko et al.; mined from patent text by program, amines drawn as free bases though some values may be those of a salt)

SMILES | melting point [°C]
CC(C)c1ccc2c(c1)c(Sc1ccccc1)c(C(C)C(=O)O)n2Cc1ccc(Cl)cc1 (stereo not drawn) | 181 to 182
COc1cc2c(=O)n(CCCn3ccnc3)c3c4ccccc4[nH]c(=O)c3c2cc1OC | 288 to 290
COc1c(F)cc(F)c(OC)c1-c1ccc(C[C@H](NC(=O)c2c(Cl)cccc2Cl)C(=O)O)cc1 | 201 to 202
OC(CC1CCNCC1)(c1ccc(F)cc1)c1ccc(F)cc1 | 169 to 171
OCc1ccc2ccc3cccc4ccc1c2c34 | 125 to 126
Cc1ccc(S(=O)(=O)N2CCCC(CCl)C2)cc1 (stereo not drawn) | 100 to 102
CCOC(=O)c1cn(-c2nccs2)cn1 | 142 to 143
O=C(O)c1ccc(F)c2c1C=CCO2 | 224 to 226
Clc1ccc(Oc2cncc3sc(C4=NCCN4)cc23)cc1 | 154 to 155
CCOC(=O)c1cc(-c2ccc(Cl)cc2)cnc1C(F)(F)F | 84 to 85
CN1C(=O)CCC2=C1CCc1c(F)cccc12 | 137 to 138
COc1cc(Nc2c(C#N)cnc3cc(-c4cncc(CN5CCOCC5)c4)ccc23)c(Cl)cc1Cl | 141 to 143
N=C(N)c1ccc(CC23CCCN2C(=O)N(c2cc(Cl)cc(Cl)c2)C3=O)cc1 (stereo not drawn) | 188
O=C(Nc1ccc(F)c(F)c1)c1cc(-c2ccc(F)cc2F)ccc1O | 231 to 232
CC(=O)OC(OC(C)=O)c1ccc([N+](=O)[O-])cc1 | 124 to 126
CCOc1nc2cccc(C(=O)OC)c2n1Cc1ccc(-c2ccccc2C(=O)OC)cc1 | 112 to 113
CN(C)C(=O)c1c(-c2ccc(N(C)C)cc2)ccc2ccccc12 | 156 to 157
O=C(O)[C@H](CCc1ccccc1)NS(=O)(=O)c1ccc2c(c1)sc1ccccc12 | 210 to 212
O=C(Nc1ccc(N2CCS(=O)(=O)CC2)c(C(F)(F)F)c1)N1CCc2cc(Oc3cc(Cl)ncn3)ccc21 | 248 to 255
COC(=O)CC(=O)NCc1ccccc1 | 51 to 54
Cc1cc(C)n(-c2nccc(Nc3ccc(Cl)cc3)n2)n1 | 136 to 140
CC(C)(O)Cn1c(CON2C(=O)c3ccccc3C2=O)nc2c(N)nc3ccccc3c21 | 270 to 272
COc1ccc(-c2c3c(cc4ccc(OC)cc24)C(=O)NC3=O)cc1 | 290 to 292
O=C1CCCN(C(=O)c2ccc([N+](=O)[O-])cc2)c2cccnc21 | 188 to 190
Cn1nc(N)nc1NCCCOc1cccc(C2OCCO2)c1 | 117 to 118
CC1CCc2ccc(NC(=O)C(F)(F)F)c3c(=O)c(C(=O)O)cn1c23 (stereo not drawn) | 301 to 303

SMILES | melting point [°C]
CC1(C)NC(=O)N(c2ccc([N+](=O)[O-])cc2C(F)(F)F)C1=O | 175 to 176
Cc1sc(C(=O)O)c2c1-c1c(cnn1Cc1ccccc1)CC2 | 231 to 232
O=C(O)Cc1ccc(-n2cc(F)cn2)cc1 | 165 to 167
CCOC(=O)C(=CNc1cc(O)cc(O)c1)C(=O)OCC | 190 to 192
CC(=O)c1cc(Cl)c(OCCOc2ccc3ccccc3c2)c(Cl)c1 | 110 to 111
CCN(CC)C(=O)COc1cc(N)c(Cl)cc1C(=O)O | 186 to 188
CN(C)c1ccc(C(=O)N2CCC(C(c3ccccc3)c3ccccc3)CC2)cc1 | 177 to 179
CCCCCCCc1cc(O)cc(O)c1C(=O)OCc1ccccc1 | 104
CCn1c([N+](=O)[O-])cnc1C=CN(C)C | 124 to 125
CN(C)C1(c2ccccc2)CC=C(c2c[nH]c3ccccc23)CC1 (stereo not drawn) | 164 to 172
OC1(c2ccc(Cl)nc2)CCCC1 | 92 to 93
CC(=O)Nc1ccc(N2N=C(C)CC2=O)cc1 | 230
Nc1cc(S(=O)(=O)c2ccccc2)c([N+](=O)[O-])c2cccnc12 | 211 to 213
COc1ccc(C2=C(C#N)C(c3cccc4nonc34)c3c[nH]nc3N2)cc1 (stereo not drawn) | 244
Cc1nnc(-c2ccc3occ(C(=O)N4CCOCC4)c3c2)o1 | 168 to 169
CCCc1c(OCC(O)COc2ccc3c(C)c(CC(=O)O)c(=O)oc3c2)ccc(C(C)=O)c1O (stereo not drawn) | 130
Cc1noc(C(=O)N2CCCCC2)c1C(=O)O | 128 to 130
Cc1cccc(C)c1CNc1cc(Br)cc2c1nc(C)n2C | 185
CC(C)N1C(=O)NC(c2cnc3ccccc3c2)c2cc3c(cc21)OCO3 (stereo not drawn) | 202 to 205
N#CCc1ccc(CCOc2ccc(CC3SC(=N)NC3=O)cc2)nc1 (stereo not drawn) | 211 to 212
CCN1C(=O)Cc2cc3c(cc21)C(O)CO3 (stereo not drawn) | 144 to 145
CCOC(=O)c1cn(C2CC2)c2occc2c1=O | 200 to 201
COc1cc2c(cc1OC)C(CN1CCN(c3ccc(F)cc3)CC1)OCCC2 (stereo not drawn) | 135 to 136
O=C1CCC(C(=O)OCc2ccc(Cl)cc2)N1 (stereo not drawn) | 119 to 120
Cc1c(NC(=O)NC(C)(C)CO)c(C)c2c(c1-c1ccccc1)OCC2c1ccc(C(C)C)cc1 (stereo not drawn) | 181 to 182
CC1Sc2c(C(=O)O)c(=O)c3cc(F)c(N4CCSCC4)cc3n21 (stereo not drawn) | 229 to 231

SMILES | melting point [°C]
CCOCCOc1cccc2oc(-c3ccccc3)cc(=O)c12 | 94 to 96
NC(=S)c1ncn2c1[C@@H]1CCN1C(=O)c1ccccc1-2 | 227 to 230
CCCC(CCC)C(=O)NC(=O)CN | 127
CC(C)CC(C(=O)Nc1cc(Cl)cc(Cl)c1)N1C(=O)C=CC1=O (stereo not drawn) | 150
Cc1c(-c2cc(Br)c(O)c(Br)c2)oc2ccc(OP(=O)(O)O)cc2c1=O | 258 to 260
Cc1c(OCc2ccccc2)c(=O)ccn1CCCCCC(=O)O | 145 to 147
CC(=O)NC1CCC(=O)c2sccc21 (stereo not drawn) | 160 to 164
FS(F)(F)(F)(Cl)c1cccc(S(F)(F)(F)(F)Cl)c1 | 82 to 83.5
CC1=C(Cc2ccc(Cl)cc2)C(=O)C2C=CC=CC2C1=O (stereo not drawn) | 134 to 135
OC(CCc1ccc2c(c1)OCO2)C1CC1 (stereo not drawn) | 64 to 65
CCCCCN(CCC1CCCCC1)C(=O)NCc1ccncc1 | 64.7 to 65.8
O=C1c2ccccc2C(=O)c2c1c(Oc1ccc(CCCO)cc1)c1ccccc1c2Oc1ccc(CCCO)cc1 | 218 to 220
BrCCc1cc(Br)c(CCBr)cc1Br | 106 to 108
OCCCC#Cc1ccc(C(=C2CCCCCC2)c2ccc(O)cc2)cc1 | 125 to 126
CC(=O)Nc1cccc2c(=O)[nH]c3ccccc3c(=O)c12 | 270 to 272
COc1ccc(-c2nn(CC3CC3)c(=O)c(C(N)=O)c2-c2ccc(OC)cc2)cc1 | 174 to 175
N#Cc1ccc(Cn2cncn2)c(-c2ccc(O)c(Cl)c2)c1 | 243 to 245
COc1cccc2c1CCC21OC(=O)c2ccccc21 (stereo not drawn) | 111 to 112
Nc1ccc(OCc2ccc(Cl)cc2)cc1F | 73 to 75
CCc1nccn1CCCNC(=O)c1ccc(Cl)cc1 | 120 to 122
CCOC(=O)c1c(C)n(Cc2ccc3ccccc3n2)c2ccc(OCc3ccc4ccccc4n3)cc12 | 162 to 163
CCCCCSc1c[nH]nc1C1=CCCN(C)C1 | 100 to 101
COC(=O)CN1Cc2cc(C(=O)c3cccnc3)ccc2N=C1SC | 114
COc1cc(C(=O)Nc2c(Cl)cc3cn[nH]c3c2C(=O)NC2(C)CSC2)n(-c2ncccc2Cl)n1 | 162 to 165
O=c1ccc(-c2ccc(Cl)cc2)n[nH]1 | 175 to 176
CSc1sc(C(N)=O)c2c1-c1sc(C(N)=O)cc1CC2 | > 300

SMILES | melting point [°C]
CCn1cc(C(=O)O)c(=O)c2cc(F)c(N3Cc4ccc(N)cc4C3)cc21 | > 300
CCNC(=O)c1cc(Oc2nn(C)c(C(F)(F)F)c2Cl)ccc1[N+](=O)[O-] | 130
COc1ccc(C2c3[nH]c4ccccc4c3CCN2C(=O)C=Cc2cccc([N+](=O)[O-])c2)cc1 (stereo not drawn) | 227
CC(C)(C)OC(=O)[C@@H]1CCCN1C(=O)C1CCC1SC(=O)c1ccccc1 (stereo partly drawn) | 102 to 103
CC1NC(=O)c2ccccc2O1 (stereo not drawn) | 124 to 126
CCC12CCC3C4CCCC=C4CCC3C1CCC2=O (stereo not drawn) | 101 to 102
Cc1cc(F)ccc1-c1nc(NC2CCCCC2)nc2c1CCC(=O)N2c1ccccc1F | 181 to 182
CC(C)(C)OC(=O)N1CCC2(CC1)CSC1=C(O2)c2cc(-c3ccccc3C(F)(F)F)ccc2C(=O)C1=O | 223 to 225
NCCCC(N)(C(=O)O)C(F)F (stereo not drawn) | 183
O=C(O)[C@H]1O[C@@H]1C1CCCCC1 | 64 to 65
Nc1cc(C(=O)c2cccc(C(=O)c3ccc(F)c(N)c3)c2)ccc1F | 170 to 171
CCCCCCCCCCCCCCOc1ccccc1C(=O)N(CC)CC | 31 to 32
CCCN(Cc1ccc(-c2ccccc2-c2nnnn2C(c2ccccc2)(c2ccccc2)c2ccccc2)cc1)c1nc(C)cnc1C(=O)OCC | 110 to 112
Cc1cc(Cl)ccc1OCC(=O)N1Cc2ccc(C(=O)C(Cl)(Cl)Cl)n2Cc2ccccc21 | 156 to 158
NC(=O)C1=CN(CCCC(=O)NCCc2ccccc2)C=CC1 | 55 to 60
Cc1nsc(Cl)c1CS(=O)(=O)C1=NOC(C)(C)C1 | 113 to 114
CN(Cc1cccc2c1C(=O)N(C1CCC(=O)NC1=O)C2=O)C(=O)OC(C)(C)C (stereo not drawn) | 138 to 140
CNC(=O)N(O)Cc1ccoc1 | 129 to 131
COC(=O)CCC(=O)c1ccc(-c2ccc(OC)cc2)cc1 | 96 to 100
COc1cc(O)c2c(c1O)CC=CC2 | 142 to 144
Nc1ccc(CS(=O)(=O)CCO)cc1CS(=O)(=O)CCO | 183 to 185
COC(=O)CC(Cc1c[nH]c2ccccc12)(NC(=O)OC1C2CC3CC(C2)CC1C3)C(=O)O (stereo not drawn) | 108 to 109
CN1C(=O)C(=O)N(CCCCCBr)C1=S | 48 to 50
N#Cc1ccc(C(F)(F)F)cn1 | 36 to 38
COc1cccc(-c2cncc(OC3SCC(OC(C)=O)C(OC(C)=O)C3OC(C)=O)c2)c1 (stereo not drawn) | 112 to 115
